By inhibition is commonly meant how much of the control response was suppressed. Usually CC50 stands for the concentration that lowers cell viability or growth by half.

Data set [1] relates to Fasciola hepatica eggs (ABZ-susceptible isolate). The data set is described as follows: Egg hatch test (EHT), ABZ-susceptible isolates. The class given is cell-based. The following applies: mean ± SEM; for % Ovicidal activity: ABZ-susceptible isolate; for killing at 5 µM: Fasciola hepatica, read-out: % Ovicidal activity susceptible isolate. The gist of the method:
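F. hepatica eggs from naturally infected cattle, ABZ-susceptible isolate, exposed 12 h at 25 °C in dark to compound (screen at 50 µM, actives retested at 10 µM; ≤1% DMSO). After washing and 14 days in dark at 25 °C, hatching triggered by 2 h light; ovicidal activity calculated relative to DMSO control.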

Data set [2] has as its system Fasciola hepatica adults (ABZ-resistant isolate). The data set is described as follows: Adult viability test (AVT), motility inhibition. The class given is cell-based. To be noted: 10 µM, ABZ-resistant isolate; for inhibition at 10 µM: Fasciola hepatica, relative to motility score at 24 h. How it is done: The adult viability test was based on a previous study carried out by Kirchhofer et al. with minor modifications. In brief, adult F. hepatica flukes were recovered from bile ducts of infected sheep with the resistant isolate. Flukes were quickly washed with 0.9% (w/v) NaCl and placed in six-well plates (Costar, Spain) with RPMI 1640 culture medium (Sigma-Aldrich®, Spain) supplemented with antibiotics (50 μg/mL streptomycin and 50 IU/mL penicillin; Sigma-Aldrich®, Spain) and 80 μg/mL of a hemin solution at 37 °C.
To monitor the anthelmintic effect of BZDs and the commercial drug ABZ, two flukes per well were incubated up to 72 h at a final concentration of 10 µM. DMSO at 0.5% was used as negative control. The individual movement of each fluke was examined using an inverted microscope at 24, 48, and 72 h. The activity of the compounds was estimated as motility inhibition, using a scale of fluke viability ranging from 3 (normal movements) to 0 (death, no movement observed for 2 min). All tests were repeated at least twice at different days.
Additionally, the percentage of motility inhibition for each compound was calculated from […] to 48 and 72 h after treatment using the following formula: 100 × (mean of the motility score of BZD at 24 h − mean of the motility score of BZD at 48 or 72 h)/(mean of the motility score of BZD at 24 h).
For the AVT, statistical analysis was performed using GraphPad Prism version 8.0.2. The normality of the motility inhibition scores was assessed using the Shapiro–Wilk test. Then, differences among scores at the three time points (24, 48, and 72 h) were evaluated using the Friedman test. In cases where significant differences were observed, post hoc analysis was conducted using the Nemenyi test for multiple comparisons. Comparisons with a P value < 0.05 were considered statistically significant.

The subject of the next data set is Caco2 cells. On the set-up: method as in doi:10.1016/j.molstruc.2022.133735. To be noted: cited from earlier work.
The mark [3] stands for this setting: read-out: % Adult motility inhibition 48 h.
The mark [4] stands for this setting: read-out: % Adult motility inhibition 72 h.

Each structure is given as a SMILES string. Entries after “also recorded” stand apart in the source; their conditions may differ. Like-named read-outs stand apart in the source and are kept apart here.

Regarding `Cc1ccc2[nH]c(NCc3cccs3)nc2c1` [BZD31], the “% Ovicidal activity” value in data set [1] (10 µM) was 99.58 ± 00.26%; in data set [1] (10 µM, listed as BDZ-31) it was 99.5%; in data set [1] (10 µM, listed as BZD-31) it was not below 80%; in data set [1] (50 µM) it was 100.00 ± 0.00%; in data set [1] (50 µM, listed as BZD-31), “higher than 80%”. Moreover, the killing at 5 µM in data set [1] turned out to be 74%. Besides, the “Motility inhibition of adults after 72 h of incubation (in words; significance vs 24 h)” value in data set [2] was “significant reduction”. Also, the inhibition at 10 µM in data set [2] (setting [3]) was determined as 35.7%; in data set [2] (setting [4]), 38.1%.
Consider `Cc1ccc2[nH]c(NC(=O)c3ccccc3)nc2c1` [BZD46], for which the “% Ovicidal activity” value in data set [1] (10 µM) is given as 83.90 ± 02.87%; in data set [1] (50 µM), 98.59 ± 0.94%; in data set [1] (50 µM, listed as BZD-46) it was “higher than 80%”. Further, in data set [1], the killing at 5 µM was determined as 71.2 ± 9.91%. In addition, in data set [2], the “Motility inhibition of adults after 72 h of incubation (in words; significance vs 24 h)” value is reported as “nor those with ABZSO or BZD46, exhibited any significant motility inhibition”. Moreover, the inhibition at 10 µM in data set [2] (setting [3]) and in data set [2] (setting [4]) was 28.6% in each case.
With `COc1ccc2[nH]c(NC(=O)c3ccccc3)nc2c1` [BZD56], the “% Ovicidal activity” value was 93.93 ± 01.90% in data set [1] (10 µM); not below 80% in data set [1] (10 µM, listed as BZD-56); 99.58 ± 0.22% in data set [1] (50 µM); “higher than 80%” in data set [1] (50 µM, listed as BZD-56). Also, the killing at 5 µM in data set [1] is less than 90%. In addition, in data set [2], the “Motility inhibition of adults after 72 h of incubation (in words; significance vs 24 h)” value is “significant reduction”. Besides, the results for the inhibition at 10 µM in data set [2] (setting [3]) and in data set [2] (setting [4]) were 53% and 51.5%, respectively.
In the case of `O=C(Nc1nc2cc(Cl)ccc2[nH]1)c1ccccc1` [BZD59], the “% Ovicidal activity” value is on record as 91.16 ± 02.58% in data set [1] (10 µM); not below 80% in data set [1] (10 µM, listed as BZD-59); 100.00 ± 0.00% in data set [1] (50 µM); “higher than 80%” in data set [1] (50 µM, listed as BZD-59). The killing at 5 µM in data set [1] worked out at 73.5 ± 8.88%. In addition, the CC50 with Caco2 cells was approximately 62 µM. Further, in data set [2], the “Motility inhibition of adults after 72 h of incubation (in words; significance vs 24 h)” value was “high motility inhibition; also recorded: significant reduction; also recorded: most potent compound; also recorded: most significant reduction in worm motility”. Further, the inhibition at 10 µM in data set [2] (setting [3]) amounted to 46.7%; in data set [2] (setting [4]), 60%.

These data come from PMC10993450, “New benzimidazole derivative compounds with in vitro fasciolicidal properties” (Parasites & Vectors, 2024).
